Measured values: patent publication US6737383B1, “Herbicidal oxadiazolidines” (priority 1999, dated 2004)

Tests used:
bedstraw = experiment: Test B pre/postemergence bedstraw; type: in vivo, Galium aparine
In short: (§1)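 Test chemicals in a non-phytotoxic solvent mixture with surfactant were sprayed preemergence onto planted seeds and postemergence onto plants 2 to 18 cm tall (1- to 4-leaf stage). After twelve to sixteen days in a greenhouse, injury was visually rated against untreated controls from 0 (no effect) to 10 (complete control).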

blackgrass = experiment: Test B pre/postemergence blackgrass; type: in vivo, Alopecurus myosuroides
In short: as §1

surinam grass = experiment: Test B pre/postemergence surinam grass; type: in vivo, Brachiaria decumbens
In short: as §1

cocklebur = experiment: Test B pre/postemergence cocklebur; type: in vivo, Xanthium strumarium; settings: for Cocklebur plant response rating: scale of 0 to 10 where 0 is no effect and 10 is complete control
In short: as §1

corn = experiment: Test B pre/postemergence corn; type: in vivo, Zea mays; settings: for Corn plant response rating: scale of 0 to 10 where 0 is no effect and 10 is complete control
In short: as §1

crabgrass = experiment: Test B pre/postemergence crabgrass; type: in vivo, Digitaria sanguinalis; settings: for Crabgrass plant response rating: scale of 0 to 10 where 0 is no effect and 10 is complete control
In short: as §1

soybean = experiment: Test B pre/postemergence soybean; type: in vivo, Glycine max; settings: for Soybean plant response rating: scale of 0 to 10 where 0 is no effect and 10 is complete control
In short: as §1

sugar beet = experiment: Test B pre/postemergence sugar beet; type: in vivo, Beta vulgaris; settings: for Sugarbeets plant response rating: scale of 0 to 10 where 0 is no effect and 10 is complete control
In short: as §1

velvetleaf = experiment: Test B pre/postemergence velvetleaf; type: in vivo, Abutilon theophrasti; settings: for Velvetleaf plant response rating: scale of 0 to 10 where 0 is no effect and 10 is complete control
In short: as §1

wheat = experiment: Test B pre/postemergence wheat; type: in vivo, Triticum aestivum; settings: for Wheat plant response rating: scale of 0 to 10 where 0 is no effect and 10 is complete control
In short: as §1

wild oat = experiment: Test B pre/postemergence wild oat; type: in vivo, Avena fatua; settings: for Wild oats plant response rating: scale of 0 to 10 where 0 is no effect and 10 is complete control
In short: as §1

purple nutsedge = experiment: Test B pre/postemergence purple nutsedge; type: in vivo, Cyperus rotundus; settings: for Nutsedge plant response rating: scale of 0 to 10 where 0 is no effect and 10 is complete control
In short: as §1

rice = experiment: Test B flood test rice; type: in vivo, Oryza sativa
In short: (§2)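 Read-out is a visual response score from 0 (no effect) to 10 (complete control), assigned by comparison with untreated controls. Treatment was applied at the 2-leaf stage, and plants stayed in the greenhouse for twelve to sixteen days before scoring.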

smallflower flatsedge = experiment: Test B flood test smallflower flatsedge; type: in vivo, Cyperus difformis
In short: as §2

duck salad = experiment: Test B flood test duck salad; type: in vivo, Heteranthera limosa
In short: as §2

bamyardgrass = experiment: Test B flood test barnyardgrass; type: in vivo, Echinochloa crus-galli
In short: as §2

[1] = Postemergence, Rate 125 g/ha, scale 0 to 10, 0 is no effect, 10 is complete control
[2] = Preemergence, Rate 62 g/ha, scale 0 to 10 (0 no effect, 10 complete control)
[3] = Preemergence, Rate 250 g/ha, scale of 0 to 10 where 0 is no effect and 10 is complete control
[4] = Preemergence, Rate 500 g/ha, scale of 0 to 10 where 0 is no effect and 10 is complete control
[5] = Rate 62 g/ha, Postemergence, scale of 0 to 10 where 0 is no effect and 10 is complete control
[6] = Rate 250 g/ha, Postemergence, scale of 0 to 10 where 0 is no effect and 10 is complete control
[7] = Rate 500 g/ha, Postemergence, scale 0 to 10, 0 no effect, 10 complete control
[8] = Postemergence (flood test), Rate 125 g/ha, scale 0 to 10, 0 is no effect, 10 is complete control
[9] = Rate 62 g/ha, Postemergence (flood test species), scale of 0 to 10 where 0 is no effect and 10 is complete control
[10] = Rate 62 g/ha, flood test species, Pre-emergence, visual evaluation after twelve to sixteen days
[11] = Rate 125 g/ha, Pre-emergence, flood test species, scale 0 to 10 where 0 is no effect and 10 is complete control
[12] = Rate 250 g/ha, Pre-emergence, flood-test species, scale 0 to 10, 0 is no effect, 10 is complete control
[13] = Rate 500 g/ha, Pre-emergence, flood test species, scale 0 to 10 (0 no effect, 10 complete control)

Structure (SMILES): CCC(CC)n1c(=O)on(C(=O)N(c2ccc(F)cc2)C(C)C)c1=O [Compound 358]
- Plant response rating, Bedstraw (bedstraw; [1]): 2
- Plant response rating, Bedstraw (bedstraw; [2]): 0
- Bedstraw plant response rating (0 to 10 scale) (bedstraw; Preemergence, Rate 125 g/ha): 9
- Bedstraw plant response rating (bedstraw; [3]): 10
- Bedstraw plant response rating (bedstraw; [4]): 10
- Bedstraw plant response rating (bedstraw; [5]): 0
- Plant response rating, Bedstraw (bedstraw; [6]): 3
- Plant response rating, Bedstraw (bedstraw; [7]): 6
- Plant response rating, Blackgrass (blackgrass; [1]): 6
- Plant response rating, Blackgrass (blackgrass; [2]): 4
- Blackgrass plant response rating (0 to 10 scale) (blackgrass; Preemergence, Rate 125 g/ha): 8
- Blackgrass plant response rating (blackgrass; [3]): 10
- Blackgrass plant response rating (blackgrass; [4]): 10
- Blackgrass plant response rating (blackgrass; [5]): 2
- Plant response rating, Blackgrass (blackgrass; [6]): 8
- Plant response rating, Blackgrass (blackgrass; [7]): 8
- Plant response rating, B. signalgrass (surinam grass; [1]): 0
- Plant response rating, B. signalgrass (surinam grass; [2]): 1
- B. signalgrass plant response rating (0 to 10 scale, 0 is no effect, 10 is complete control) (surinam grass; Preemergence, Rate 125 g/ha): 3
- B. signalgrass plant response rating (surinam grass; [3]): 5
- B. signalgrass plant response rating (surinam grass; [4]): 7
- B. signalgrass plant response rating (surinam grass; [5]): 0
- Plant response rating, B. signalgrass (surinam grass; [6]): 1
- Plant response rating, B. signalgrass (surinam grass; [7]): 2
- Plant response rating, Cocklebur (cocklebur; [1]): 0
- Plant response rating, Cocklebur (cocklebur; [2]): 0
- Cocklebur plant response rating (0 to 10 scale) (cocklebur; Preemergence, Rate 125 g/ha): 0
- Cocklebur plant response rating (cocklebur; Preemergence, Rate 250 g/ha): 0
- Cocklebur plant response rating (cocklebur; Preemergence, Rate 500 g/ha): 0
- Cocklebur plant response rating (cocklebur; Rate 62 g/ha, Postemergence): 0
- Plant response rating, Cocklebur (cocklebur; [7]): 0
- Plant response rating, Corn (corn; [1]): 0
- Plant response rating, Corn (corn; [2]): 0
- Corn plant response rating (0 to 10 scale) (corn; Preemergence, Rate 125 g/ha): 0
- Corn plant response rating (corn; Preemergence, Rate 250 g/ha): 2
- Corn plant response rating (corn; Preemergence, Rate 500 g/ha): 6
- Corn plant response rating (corn; Rate 62 g/ha, Postemergence): 0
- Plant response rating, Corn (corn; [7]): 0
- Plant response rating, Crabgrass (crabgrass; [1]): 0
- Plant response rating, Crabgrass (crabgrass; [2]): 9
- Crabgrass plant response rating (0 to 10 scale) (crabgrass; Preemergence, Rate 125 g/ha): 10
- Crabgrass plant response rating (crabgrass; Preemergence, Rate 250 g/ha): 10
- Crabgrass plant response rating (crabgrass; Preemergence, Rate 500 g/ha): 10
- Crabgrass plant response rating (crabgrass; Rate 62 g/ha, Postemergence): 0
- Plant response rating, Crabgrass (crabgrass; [7]): 7
- Plant response rating, Soybean (soybean; [1]): 4
- Plant response rating, Soybean (soybean; [2]): 0
- Soybean plant response rating (0 to 10 scale) (soybean; Preemergence, Rate 125 g/ha): 0
- Soybean plant response rating (soybean; Preemergence, Rate 250 g/ha): 0
- Soybean plant response rating (soybean; Preemergence, Rate 500 g/ha): 1
- Soybean plant response rating (soybean; Rate 62 g/ha, Postemergence): 4
- Plant response rating, Soybean (soybean; [7]): 7
- Plant response rating, Sugarbeets (sugar beet; [1]): 0
- Plant response rating, Sugarbeets (sugar beet; [2]): 0
- Sugarbeets plant response rating (0 to 10 scale) (sugar beet; Preemergence, Rate 125 g/ha): 1
- Sugarbeets plant response rating (sugar beet; Preemergence, Rate 250 g/ha): 3
- Sugarbeets plant response rating (sugar beet; Preemergence, Rate 500 g/ha): 3
- Sugarbeets plant response rating (sugar beet; Rate 62 g/ha, Postemergence): 0
- Plant response rating, Sugarbeets (sugar beet; [7]): 4
- Plant response rating, Velvetleaf (velvetleaf; [1]): 2
- Plant response rating, Velvetleaf (velvetleaf; [2]): 3
- Velvetleaf plant response rating (0 to 10 scale) (velvetleaf; Preemergence, Rate 125 g/ha): 4
- Velvetleaf plant response rating (velvetleaf; Preemergence, Rate 250 g/ha): 5
- Velvetleaf plant response rating (velvetleaf; Preemergence, Rate 500 g/ha): 8
- Velvetleaf plant response rating (velvetleaf; Rate 62 g/ha, Postemergence): 2
- Plant response rating, Velvetleaf (velvetleaf; [7]): 3
- Plant response rating, Wheat (wheat; [1]): 3
- Plant response rating, Wheat (wheat; [2]): 0
- Wheat plant response rating (0 to 10 scale) (wheat; Preemergence, Rate 125 g/ha): 0
- Wheat plant response rating (wheat; Preemergence, Rate 250 g/ha): 1
- Wheat plant response rating (wheat; Preemergence, Rate 500 g/ha): 3
- Wheat plant response rating (wheat; Rate 62 g/ha, Postemergence): 2
- Plant response rating, Wheat (wheat; [7]): 5
- Plant response rating, Wild oats (wild oat; [1]): 3
- Plant response rating, Wild oats (wild oat; [2]): 4
- Wild oats plant response rating (0 to 10 scale) (wild oat; Preemergence, Rate 125 g/ha): 5
- Wild oats plant response rating (wild oat; Preemergence, Rate 250 g/ha): 9
- Wild oats plant response rating (wild oat; Preemergence, Rate 500 g/ha): 10
- Wild oats plant response rating (wild oat; Rate 62 g/ha, Postemergence): 0
- Plant response rating, Wild oats (wild oat; [7]): 7
- Plant response rating, Nutsedge (purple nutsedge; [1]): 0
- Plant response rating, Nutsedge (purple nutsedge; [2]): 0
- Nutsedge plant response rating (0 to 10 scale) (purple nutsedge; Preemergence, Rate 125 g/ha): 0
- Nutsedge plant response rating (purple nutsedge; Preemergence, Rate 250 g/ha): 0
- Nutsedge plant response rating (purple nutsedge; Preemergence, Rate 500 g/ha): 0
- Nutsedge plant response rating (purple nutsedge; Rate 62 g/ha, Postemergence): 0
- Plant response rating, Nutsedge (purple nutsedge; [7]): 0
- Plant response rating, Rice (rice; [8]): 0
- Rice plant response rating (rice; [9]): 0
- Plant response rating, Rice (0 to 10 scale, 0 is no effect, 10 is complete control) (rice; [10]): 0
- Rice plant response rating (rice; [11]): 0
- Rice plant response rating (rice; [12]): 0
- Plant response rating, Rice (rice; Rate 500 g/ha, listed under Postemergence (flood test species), scale 0 to 10, 0 no effect, 10 complete control): 0
- Rice plant response rating (rice; [13]): 8
- Plant response rating, S. Flatsedge (smallflower flatsedge; [8]): 0
- S. Flatsedge plant response rating (smallflower flatsedge; [9]): 0
- Plant response rating, S. Flatsedge (0 to 10 scale, 0 is no effect, 10 is complete control) (smallflower flatsedge; [10]): 0
- S. Flatsedge plant response rating (smallflower flatsedge; [11]): 6
- S. Flatsedge plant response rating (smallflower flatsedge; [12]): 8
- S. Flatsedge plant response rating (smallflower flatsedge; [13]): 8
- Plant response rating, Ducksalad (duck salad; [8]): 2
- Ducksalad plant response rating (duck salad; [9]): 0
- Plant response rating, Ducksalad (0 to 10 scale, 0 is no effect, 10 is complete control) (duck salad; [10]): 0
- Ducksalad plant response rating (duck salad; [11]): 0
- Ducksalad plant response rating (duck salad; [12]): 0
- Ducksalad plant response rating (duck salad; [13]): 2
- Plant response rating, Barnyardgrass (bamyardgrass; [8]): 2
- Barnyardgrass plant response rating (bamyardgrass; [9]): 2
- Plant response rating, Barnyardgrass (0 to 10 scale, 0 is no effect, 10 is complete control) (bamyardgrass; [10]): 0
- Barnyardgrass plant response rating (bamyardgrass; [11]): 0
- Plant response rating, Barnyardgrass (bamyardgrass; Rate 250 g/ha, Postemergence (flood test species), scale of 0 to 10 where 0 is no effect and 10 is complete control): 9
- Barnyardgrass plant response rating (bamyardgrass; [12]): 9
- Barnyardgrass plant response rating (bamyardgrass; [13]): 9
